In paper PMC5336612, “Therapeutic effects of different doses of polyethylene glycosylated porcine glucagon-like peptide-2 on ulcerative colitis in male rats” (BMC Gastroenterology, 2017):
Where no end group is shown, it is not given here.

Legend:
[1] = test system: ZO-1; assay: Real-time PCR expression in colon; assay type: in vivo, rat; conditions: DSS colitis rats; 100 nmol/kg i.p. daily d1-6 (H); compared with DSS group; RT-PCR, 2^-ΔΔCt vs GADPH
Experimental: (§1) Total RNA was isolated using RNAiso Plus kits following the manufacturers’ instructions. A 2 μL aliquot of the total RNA was used for first-strand cDNA synthesis using PrimeScript® RT-reagent Kit with gDNA Eraser. Real-time PCR was carried out with ABI plus one (Life Technologies, Carlsbad, CA, USA) using SYBR Premix Ex TaqTM. The primers used were in Table 1. RT-PCR analysis was performed with an ABI Step One Plus Real-Time PCR System (Applied Biosystems, Inc.) using SYBR® Premix Ex TaqTM. PCR reactions were performed in triplicate under the following conditions: 95 °C for 30 s; 40 cycles of 95 °C for 5 s and 60 °C for 30 s. Fluorescent data for quantification were collected at the end of each cycle. Melting curve analysis was performed at 55–95 °C to verify the single product generation at the end of the assay. Standard curves were generated based on the data obtained from the standards of the 2–2^−6 dilution series template. Standard curve analysis was performed by using Step One Software (v2.2, Applied Biosystems, Inc.). Data were normalised to GADPH using the 2^−△△Ct quantitation method.

[2] = test system: IL-7; assay: Real-time PCR expression in colon; assay type: in vivo, rat; conditions: DSS colitis rats, compared with DSS group, RT-PCR
Experimental: as §1

[3] = test system: IL-10; assay: Real-time PCR expression in colon; assay type: in vivo, rat; conditions: DSS colitis rats, compared with DSS group, RT-PCR
Experimental: as §1

[4] = rat, in vivo; cited from earlier work
[5] = 12.5 nmol/kg i.p. daily d1-6 (L)

Question: For “polyethylene glycosylated porcine glucagon-like peptide-2 (HGDGSFSDEMNTVLDNLATRDFINWLLHTKITDSL; also: mono-PEGylated with mPEG5k-SPA, site not given here; UniProt P01274 146-180, looked up, variant A2G) [PEG–pGLP-2]”, which “Expression of ZO-1 in colon” value [1] is on record?
Answer: significantly (p < 0.05) increased

Question: What about the “Expression of IL-7 in colon” value [2, 5] of the same substance?
Answer: significantly (p < 0.05) decreased

Question: And the “Expression of IL-7 in colon” value ([2]; 25 nmol/kg i.p. daily d1-6 (M))?
Answer: significantly (p < 0.05) decreased

Question: And the “Expression of IL-7 in colon” value ([2]; 100 nmol/kg i.p. daily d1-6 (H))?
Answer: significantly (p < 0.05) decreased

Question: And the “Expression of IL-10 in colon” value [3, 5]?
Answer: significantly (p < 0.05) decreased

Question: What about the “Expression of IL-10 in colon” value ([3]; 25 nmol/kg i.p. daily d1-6 (M)) of the same substance?
Answer: significantly (p < 0.05) decreased

Question: And the half-life [4]?
Answer: 3.37 h

Question: And the t1/2 [4]?
Answer: 3.38 h
